≈ marks a conversion by molar mass, not a printed value.
Columns and labels:
[1] = tested on: LoVo (human colon adenocarcinoma); test: in vitro cytotoxicity (colony growth inhibition) against LoVo cells; type: cell-based; details: concentration inhibiting by 50% colony growth, tested as hydrochlorides
Method: (§1) All compounds were tested as their hydrochlorides.

[2] = tested on: LoVo/DX cells; test: in vitro cytotoxicity (colony growth inhibition) against LoVo/DX cells; type: cell-based, human; details: for R.I. = Resistance Index = (IC50 LoVo/DX)/(IC50 LoVo): ratio of IC50 LoVo/DX to IC50 LoVo; for Cytotoxicity after 4h of treatment (IC50) LoVo/DX: concentration inhibiting by 50% colony growth, tested as hydrochlorides
Method: as §1

[3] = in vivo; details: mouse, in vivo, iv
Method: (§2) The biological activity of the compounds according to the invention was tested in vitro against LoVo (human colon adenocarcinoma) and LoVo/DX cells in comparison with doxorubicin. The compounds of the invention were also tested in vivo against P388 and P388/DX murine leukemia in comparison with doxorubicin. All compounds were tested as their hydrochlorides.

[4] = tested on: P388; test: in vivo; details: for %T/C (Median survival time of treated mice/median survival time of controls x 100): P388 (iv, iv+1), at optimal dose
Method: as §2

[5] = in vivo; details: mouse, in vivo, iv; remark: listed apart in the source
Method: as §2

[6] = tested on: P388/DX Johnson; test: in vivo; details: for %T/C (Median survival time of treated mice/median survival time of controls x 100): P388/DX Johnson (iv, iv+1), at optimal dose
Method: as §2

| SMILES | IC50 ([1]; Homo sapiens, LoVo, 4h of treatment, read-out: Cytotoxicity after 4h of treatment (IC50) LoVo) [µg/mL] | R.I. = Resistance Index = (IC50 LoVo/DX)/(IC50 LoVo) [2] | MTD [3] [mg/kg] | %T/C (Median survival time of treated mice/median survival time of controls x 100) [4] [%] | MTD [5] [mg/kg] | %T/C (Median survival time of treated mice/median survival time of controls x 100) [6] [%] | Cytotoxicity after 4h of treatment (IC50) LoVo [1] [µg/mL] | Cytotoxicity after 4h of treatment (IC50) LoVo/DX [2] [µg/mL] | O.D. (Optimal dose: maximum tolerated dose (LD10)) ([4]; P388 (iv, iv+1): tumor implanted intravenously, treatment begins one day after implantation) [mg/kg] | O.D. (Optimal dose: maximum tolerated dose (LD10)) ([6]; P388/DX Johnson (iv, iv+1): tumor implanted intravenously, treatment begins one day after implantation) [mg/kg] |
| --- | --- | --- | --- | --- | --- | --- | --- | --- | --- | --- |
| COc1cccc2c1C(=O)c1c(O)c3c(c(O)c1C2=O)C[C@@](O)(C(=O)CO)C[C@@H]3O[C@H]1C[C@H](N)[C@H](O)[C@H](C)O1 [Doxorubicin, reference compound] | 0.06 (≈ 0.11 µM) | 36 | 13 | 250 | 13 | 100 |  |  |  |  |
| C[C@@H]1O[C@@H](O[C@H]2C[C@](O)(C(=O)CO)Cc3c2cc2c(c3O)C(=O)c3cccc(O)c3C2=O)C[C@H](N2CCOCC2)[C@@H]1O [Ia, 4-demethyl-6-deoxy-3′-deamino-3′-(4-morpholinyl) doxorubicin] |  | 4.7 |  | 222 |  | 183 | 0.0355 | 0.1654 |  |  |
| CC(=O)[C@]1(O)Cc2c(O)c3c(c(O)c2[C@@H](O[C@H]2C[C@H](N4CCOCC4)[C@H](O)[C@H](C)O2)C1)C(=O)c1c(N)cccc1C3=O [Ib, 4-demethoxy-4-amino-3′-deamino-3′-(4-morpholinyl)-daunorubicin] |  | 2.1 |  | 156 |  | 167 | 0.0137 | 0.0285 |  |  |
| CC(=O)[C@]1(O)Cc2c(O)c3c(c(O)c2[C@@H](O[C@H]2C[C@H](N4CCOCC4)[C@@H](O)[C@H](C)O2)C1)C(=O)c1c(N)cccc1C3=O [Ic, 4-demethoxy-4-amino-3′-deamino-3′-(4-morpholinyl)-4′-epi-daunorubicin] |  | 1.3 |  |  | 20 | 195 | 0.036 | 0.0485 |  |  |
| CC(=O)[C@]1(O)Cc2c(O)c3c(c(O)c2[C@@H](O[C@H]2C[C@H](N4CCOCC4)[C@@H](O)[C@H](C)O2)C1)C(=O)c1c(F)cccc1C3=O [Ie, 4-demethoxy-4-fluoro-3′-deamino-3′-(4-morpholinyl)-4′-epi-daunorubicin] |  | 3.6 | 6.3 | 411 | 6.3 | 244 | 0.047 | 0.168 |  |  |
| COC1CN(C2CC(OC3CC(O)(C(C)=O)Cc4c(O)c5c(c(O)c43)C(=O)c3ccccc3C5=O)OC(C)C2O)CCO1 (centres unmarked) [Il, 4-demethoxy-3′-deamino-3′-(2-methoxy-4-morpholinyl)-daunorubicin] |  | 11.5 |  | 133 |  | 161 | 0.0002 | 0.0023 | 0.14 | 0.36 |

— patent EP0387661A2, “New 3'-(4-morpholinyl)- and 3'-(2-methoxy-4-morpholinyl)-anthracycline derivatives” (priority 1989, dated 1990)
